Measurements as given in ChEMBL document CHEMBL6177971, “Iterative Optimization Yields Stapled Peptides with Superior Pharmacokinetics and Potency for Renal Fibrosis Treatment” (J Med Chem, 2025).
Active and inactive are the calls of the source. The rule behind the calls is not given here. *1 amine or outer side, *2 acyl side, *3 side chain or, on linkers, in order; H or OH if unused. Where a SMILES comes first, the peptide text is derived from it. Bridges are numbered along the chain shown (N, C = ends). [ ]: non-standard residue; d: D form. Gly(pent-4-enyl) = C=CCCC[C@H](N)C(=O)O; Octanediyl(1,8) = C(CCCC[*:2])CCC[*:1]; S5 = C=CCCC[C@](C)(N)C(=O)O; X2 = C(CCC[*:2])CC[*:1]; X4 = C(CC[*:2])C[*:1]

Assays:
[1] = Half life of compound; type: physicochemical
NIH3T3 [2] = assay: Inhibition of TGF-beta1-induced EMT in mouse NIH3T3 cells assessed as decrease in alpha-SMA level at 10 uM incubated for 48 hrs by Western blot analysis; type: functional, cell-based
NIH3T3 [3] = assay: Inhibition of TGF-beta1-induced EMT in mouse NIH3T3 cells assessed as decrease in fibronectin level at 10 uM incubated for 48 hrs by Western blot analysis; type: functional, cell-based
NIH3T3 [4] = assay: Cytotoxicity against mouse NIH3T3 cells assessed as inhibition of cell viability up to 160 uM incubated for 48 hrs by CCK8 assay; type: toxicity, cell-based; settings: nih3t3, 48 h
[5] = Stability in C57BL/6J mouse serum assessed as proteolysis resistance measured up to 72 hrs by HPLC analysis; type: ADME, cell-free

| Compound | half-life [1] [h] | inhibition (NIH3T3 [2]) | inhibition (NIH3T3 [3]) | Activity (NIH3T3 [4]) | Stability [5] |
| --- | --- | --- | --- | --- | --- |
| CC[C@H](C)[C@H](NC(=O)[C@H](Cc1c[nH]cn1)NC(=O)[C@H](N)CC(=O)O)C(=O)N[C@H](CC(N)=O)C(=O)N1CCC[C@H]1C(=O)N[C@@H](CCC(N)=O)C(=O)N[C@H](C)C(=O)N[C@@H](CCCNC(=N)N)C(N)=O | 125 | Active | Active | Non-toxic |  |
| C=CCCC[C@](C)(NC(=O)[C@H](Cc1c[nH]cn1)NC(=O)[C@H](N)CC(=O)O)C(=O)N[C@H](CC(N)=O)C(=O)N1CCC[C@H]1C(=O)N[C@@H](CCC(N)=O)C(=O)N[C@H](C)C(=O)N[C@@H](CCCNC(=N)N)C(N)=O | 129 | Active | Active | Non-toxic |  |
| H-HNNPQIRD-OH | 0.57 |  |  | Non-toxic |  |
| C[C@@H](NC(=O)[C@H](CCC(N)=O)NC(=O)[C@@H]1CCCN1C(=O)[C@@H](CC(N)=O)NC(=O)[C@H](CCCCN)NC(=O)[C@H](Cc1c[nH]cn1)NC(=O)[C@H](N)CC(=O)O)C(=O)N[C@@H](CCCNC(=N)N)C(N)=O | 272 | inactive | inactive | Non-toxic |  |
| C=CCCC[C@](C)(NC(=O)[C@H](Cc1c[nH]cn1)NC(=O)[C@@H](N)CC(=O)O)C(=O)N[C@@H](CS)C(=O)N1CCC[C@H]1C(=O)N[C@@H](CCC(N)=O)C(=O)N[C@H](C(=O)N[C@@H](CS)C(N)=O)[C@@H](C)CC (H-DH[S5]CPQIC-NH2) | 1.48 |  |  | Non-toxic | Stable |
| C=CCCC[C@](C)(NC(=O)[C@@H](NC(=O)[C@H](CCC(N)=O)NC(=O)[C@@H]1CCCN1C(=O)[C@](C)(CCCC=C)NC(=O)[C@H](CC(N)=O)NC(=O)[C@H](Cc1c[nH]cn1)NC(=O)[C@@H](N)CC(=O)O)[C@@H](C)CC)C(N)=O (H-DHN[S5]PQI[S5]-NH2) | 5.67 | Active | Active | Non-toxic | Stable |
| C=CCCC[C@](C)(NC(=O)[C@H](Cc1c[nH]cn1)NC(=O)[C@@H](N)CC(=O)O)C(=O)N[C@H]1CSCCCCSC[C@@H](C(N)=O)NC(=O)[C@H]([C@@H](C)CC)NC(=O)[C@H](CCC(N)=O)NC(=O)[C@@H]2CCCN2C1=O (H-DH[S5]CPQIC-NH2; linker 4-8 via X4) | 54.1 | Active | Active | Non-toxic |  |
| C=CCCC[C@H](NC(=O)[C@H](CCC(N)=O)NC(=O)[C@@H]1CCCN1C(=O)[C@H](CC(N)=O)NC(=O)[C@](C)(CCCC=C)NC(=O)[C@H](Cc1c[nH]cn1)NC(=O)[C@@H](N)CC(=O)O)C(=O)N[C@@H](CCCNC(=N)N)C(N)=O (H-DH[S5]NPQ[Gly(pent-4-enyl)]R-NH2) | 0.9 | Active | Active | Non-toxic | Stable |
| C=CCCC[C@](C)(NC(=O)[C@H](Cc1c[nH]cn1)NC(=O)[C@@H](CC(=O)O)NC(=O)CCCCCCCCCCCCCCCCC)C(=O)N[C@H](CC(N)=O)C(=O)N1CCC[C@H]1C(=O)N[C@@H](CCC(N)=O)C(=O)N[C@H](C)C(=O)N[C@@H](CCCNC(=N)N)C(N)=O |  | Active | Active | Toxic |  |
| CC[C@H](C)[C@@H]1NC(=O)[C@H](CCC(N)=O)NC(=O)[C@@H]2CCCN2C(=O)[C@@](C)(NC(=O)[C@H](CC(N)=O)NC(=O)[C@H](Cc2c[nH]cn2)NC(=O)[C@@H](N)CC(=O)O)CCC/C=C/CCC[C@@](C)(C(N)=O)NC1=O (H-DHN[S5]PQI[S5]-NH2; staple (E) 4-8) | 12.3 | inactive | inactive | Non-toxic | Stable |
| C[C@@H](NC(=O)[C@H](CCC(N)=O)NC(=O)[C@@H]1CCCN1C(=O)[C@@H](CC(N)=O)NC(=O)[C@H](CCC(N)=O)NC(=O)[C@H](Cc1c[nH]cn1)NC(=O)[C@H](N)CC(=O)O)C(=O)N[C@@H](CCCNC(=N)N)C(N)=O | 424 | Active | Active | Non-toxic |  |
| CC[C@H](C)[C@@H]1NC(=O)[C@H](CCC(N)=O)NC(=O)[C@@H]2CCCN2C(=O)[C@@H](NC(=O)[C@H](CC(N)=O)NC(=O)[C@H](Cc2c[nH]cn2)NC(=O)[C@@H](N)CC(=O)O)CSCCCCCCCCSC[C@@H](C(N)=O)NC1=O (H-DHNCPQIC-NH2; linker 4-8 via Octanediyl(1,8)) | 2.01 | Active | Active | Non-toxic | Unstable |
| CC[C@H](C)[C@H](NC(=O)[C@H](CCC(N)=O)NC(=O)[C@@H]1CCCN1C(=O)[C@H](CS)NC(=O)[C@H](CC(N)=O)NC(=O)[C@H](Cc1c[nH]cn1)NC(=O)[C@@H](N)CC(=O)O)C(=O)N[C@@H](CS)C(N)=O (H-DHNCPQIC-NH2) | 3.82 |  |  | Non-toxic | Stable |
| C[C@@]1(C(=O)N[C@@H](CCCNC(=N)N)C(N)=O)CCC/C=C\CCC[C@](C)(NC(=O)[C@H](Cc2cnc[nH]2)NC(=O)[C@@H](N)CC(=O)O)C(=O)N[C@@H](CC(N)=O)C(=O)N2CCC[C@H]2C(=O)N[C@@H](CCC(N)=O)C(=O)N1 (H-DH[S5]NPQ[S5]R-NH2; staple (Z) 3-7) | 1.11 | inactive | inactive | Non-toxic | Stable |
| C=CCCC[C@](C)(NC(=O)[C@H](Cc1c[nH]cn1)NC(=O)[C@@H](CC(=O)O)NC(=O)CCCCCCCCCCCCC)C(=O)N[C@H](CC(N)=O)C(=O)N1CCC[C@H]1C(=O)N[C@@H](CCC(N)=O)C(=O)N[C@H](C)C(=O)N[C@@H](CCCNC(=N)N)C(N)=O |  | Active | Active | Toxic |  |
| C=CCCC[C@](C)(NC(=O)[C@H](Cc1c[nH]cn1)NC(=O)[C@@H](CC(=O)O)NC(=O)CCCCCCCCCCC)C(=O)N[C@H]1CSCCCCCCSC[C@@H](C(N)=O)NC(=O)[C@@H](C)NC(=O)[C@H](CCC(N)=O)NC(=O)[C@@H]2CCCN2C1=O | 91.6 | Active | Active | Toxic | Stable |
| C[C@@H](NC(=O)[C@H](CCC(N)=O)NC(=O)[C@@H]1CCCN1C(=O)[C@@H](CC(N)=O)NC(=O)[C@H](CC(N)=O)NC(=O)[C@H](Cc1c[nH]cn1)NC(=O)[C@H](N)CC(=O)O)C(=O)N[C@@H](CCCNC(=N)N)C(N)=O | 101 | Active | Active | Non-toxic |  |
| CC[C@H](C)[C@@H]1NC(=O)[C@H](CCC(N)=O)NC(=O)[C@@H]2CCCN2C(=O)[C@H](CC(N)=O)NC(=O)[C@H](CC(N)=O)NC(=O)[C@H](Cc2c[nH]cn2)NC(=O)[C@H](CC(=O)O)NC(=O)[C@H](CCCNC(=N)N)NC1=O (cyclo(DHNNPQIR)) | 9.97 | Active | Active | Non-toxic |  |
| C=CCCC[C@](C)(NC(=O)[C@H](Cc1c[nH]cn1)NC(=O)[C@@H](N)CC(=O)O)C(=O)N[C@H]1CSCCCCCCSC[C@@H](C(N)=O)NC(=O)[C@H]([C@@H](C)CC)NC(=O)[C@H](CCC(N)=O)NC(=O)[C@@H]2CCCN2C1=O (H-DH[S5]CPQIC-NH2; linker 4-8 via X2) | 1.81 | Active | Active | Non-toxic | Unstable |
| C[C@@H](NC(=O)[C@H](CCC(N)=O)NC(=O)[C@@H]1CCCN1C(=O)[C@@H](CC(N)=O)NC(=O)[C@H](Cc1ccccc1)NC(=O)[C@H](Cc1c[nH]cn1)NC(=O)[C@H](N)CC(=O)O)C(=O)N[C@@H](CCCNC(=N)N)C(N)=O | 102 | Active | Active | Non-toxic |  |
| C=CCCC[C@](C)(NC(=O)[C@H](Cc1c[nH]cn1)NC(=O)[C@@H](CC(=O)O)NC(=O)CCCCCCCCCCC)C(=O)N[C@H](CC(N)=O)C(=O)N1CCC[C@H]1C(=O)N[C@@H](CCC(N)=O)C(=O)N[C@H](C)C(=O)N[C@@H](CCCNC(=N)N)C(N)=O |  | Active | Active | Toxic |  |
| C=CCCC[C@](C)(NC(=O)[C@H](Cc1c[nH]cn1)NC(=O)[C@@H](CC(=O)O)NC(=O)CCCCCCCCCCCCCCC)C(=O)N[C@H](CC(N)=O)C(=O)N1CCC[C@H]1C(=O)N[C@@H](CCC(N)=O)C(=O)N[C@H](C)C(=O)N[C@@H](CCCNC(=N)N)C(N)=O |  | Active | Active | Toxic |  |
